≈ marks a conversion by molar mass, not a printed value.
tested on: not listed separately; assay: physchem; conditions: pH 7.4

**Q.** For CCCC/C=C/c1cc2ccncc2cc1OC1CCNCC1 [TCMDC-143651], which chromatographic logD is on record?
**A.** The chromatographic logD was 3.61.

**Q.** For NCC(c1cccs1)S(=O)(=O)c1ccccc1 (centres unmarked) [TCMDC-143655], which chromatographic logD is on record?
**A.** The chromatographic logD was 2.5.

**Q.** With CNc1nc(SC)nnc1-c1cccc(Cl)c1Cl [TCMDC-143661] as the molecule, how does the chromatographic logD read?
**A.** Its chromatographic logD is 4.94.

**Q.** For Nc1ccccc1Nc1ccc(Cl)cc1 [TCMDC-143654], which chromatographic logD is on record?
**A.** The chromatographic logD was 5.76.

**Q.** With NS(=O)(=O)c1ccc(Nc2cnc3ccccc3n2)cc1 [TCMDC-143656] as the molecule, how does the chromatographic logD read?
**A.** Its chromatographic logD is 1.07.

**Q.** With O=C(NCc1ccco1)N1CCN(Cc2ccc3c(c2)OCO3)CC1 [TCMDC-143650] as the molecule, how does the chromatographic logD read?
**A.** Its chromatographic logD is 3.48.

**Q.** Which chromatographic logD does the source give for O=C(NCc1ccco1)N1CCN(Cc2ccc3c(c2)CCO3)CC1 [TCMDC-143652] here?
**A.** The chromatographic logD was 3.47.

**Q.** For COc1ccc2nccc(NC(=O)C3CCN(CCc4ccc(Cl)cc4)CC3)c2n1 [TCMDC-143649], which chromatographic logD is on record?
**A.** Its chromatographic logD is 5.49.

**Q.** With O=C(NCc1ccco1)N1CCN(Cc2ccc(Cl)s2)CC1 [TCMDC-143653] as the molecule, how does the chromatographic logD read?
**A.** Its chromatographic logD is 4.82.

tested on: HepG2 cells; assay: not given; conditions: HepG2, 48 h

**Q.** For CCCC/C=C/c1cc2ccncc2cc1OC1CCNCC1 [TCMDC-143651], which “TOX50 HepG2” value is on record?
**A.** Its value is 16 µM.

**Q.** With NCC(c1cccs1)S(=O)(=O)c1ccccc1 (centres unmarked) [TCMDC-143655] as the molecule, how does the “TOX50 HepG2” value read?
**A.** The value was 32 µM.

**Q.** For CNc1nc(SC)nnc1-c1cccc(Cl)c1Cl [TCMDC-143661], which “TOX50 HepG2” value is on record?
**A.** Its value is > 100 µM.

**Q.** For Nc1ccccc1Nc1ccc(Cl)cc1 [TCMDC-143654], which “TOX50 HepG2” value is on record?
**A.** Its value is 79 µM.

**Q.** Which “TOX50 HepG2” value does the source give for NS(=O)(=O)c1ccc(Nc2cnc3ccccc3n2)cc1 [TCMDC-143656] here?
**A.** Its value is > 100 µM.

**Q.** For O=C(NCc1ccco1)N1CCN(Cc2ccc3c(c2)OCO3)CC1 [TCMDC-143650], which “TOX50 HepG2” value is on record?
**A.** Its value is > 100 µM.

**Q.** Which “TOX50 HepG2” value does the source give for O=C(NCc1ccco1)N1CCN(Cc2ccc3c(c2)CCO3)CC1 [TCMDC-143652] here?
**A.** The value was > 100 µM.

**Q.** Which “TOX50 HepG2” value does the source give for COc1ccc2nccc(NC(=O)C3CCN(CCc4ccc(Cl)cc4)CC3)c2n1 [TCMDC-143649] here?
**A.** The value was > 100 µM.

**Q.** With O=C(NCc1ccco1)N1CCN(Cc2ccc(Cl)s2)CC1 [TCMDC-143653] as the molecule, how does the “TOX50 HepG2” value read?
**A.** The value was > 100 µM.

tested on: M. tuberculosis H37Rv in infected THP1 cells; assay: Intracellular assay (luciferase H37Rv in THP1 cells); assay type: cell-based, Mycobacterium tuberculosis; conditions: Mycobacterium tuberculosis, H37RV, THP-1, 120 h; read-out: ACT In Intracellular pX50 (converted)

**Q.** Which IC50 does the source give for CCCC/C=C/c1cc2ccncc2cc1OC1CCNCC1 [TCMDC-143651] here?
**A.** The IC50 was 1.26 µM.

**Q.** With CNc1nc(SC)nnc1-c1cccc(Cl)c1Cl [TCMDC-143661] as the molecule, how does the IC50 read?
**A.** The IC50 was 0.794 µM.

**Q.** For Nc1ccccc1Nc1ccc(Cl)cc1 [TCMDC-143654], which IC50 is on record?
**A.** The IC50 was 0.0158 µM.

**Q.** Which IC50 does the source give for O=C(NCc1ccco1)N1CCN(Cc2ccc(Cl)s2)CC1 [TCMDC-143653] here?
**A.** Its IC50 is 2.51 µM.

same assay, conditions: THP1 cells; the one compound of 26 tested that was not active

**Q.** Which “Inhibition of intracellular growth (active = pIC50 above 5)” value does the source give for Cc1ccc2oc(SCC(=O)Nc3nccs3)nc2n1 [TCMDC-143682] here?
**A.** Its value is “all but one (TCMDC-143682) were active”.

tested on: non-replicating M. tuberculosis H37Rv; assay: Activity against non-replicating Mycobacterium tuberculosis; conditions: non-replicating conditions

**Q.** For Nc1ccccc1Nc1ccc(Cl)cc1 [TCMDC-143654], which “ACT In NR pXC50” value is on record?
**A.** Its value is 4,5.

**Q.** For COc1ccc2nccc(NC(=O)C3CCN(CCc4ccc(Cl)cc4)CC3)c2n1 [TCMDC-143649], which “ACT In NR pXC50” value is on record?
**A.** The value was 5,1.

same assay, conditions: non-replicating conditions; active/inactive call, experiments with inh > 50%

**Q.** For CCCC/C=C/c1cc2ccncc2cc1OC1CCNCC1 [TCMDC-143651], which “ACT In NR % inhibition” value is on record?
**A.** The value was “INACTIVE”.

**Q.** With NCC(c1cccs1)S(=O)(=O)c1ccccc1 (centres unmarked) [TCMDC-143655] as the molecule, how does the “ACT In NR % inhibition” value read?
**A.** Its value is “INACTIVE”.

**Q.** With CNc1nc(SC)nnc1-c1cccc(Cl)c1Cl [TCMDC-143661] as the molecule, how does the “ACT In NR % inhibition” value read?
**A.** Its value is “INACTIVE”.

**Q.** Which “ACT In NR % inhibition” value does the source give for Nc1ccccc1Nc1ccc(Cl)cc1 [TCMDC-143654] here?
**A.** The value was “ACTIVE 8 expts out of 11 with inh > 50%”.

**Q.** Which “ACT In NR % inhibition” value does the source give for NS(=O)(=O)c1ccc(Nc2cnc3ccccc3n2)cc1 [TCMDC-143656] here?
**A.** The value was “INACTIVE”.

**Q.** For O=C(NCc1ccco1)N1CCN(Cc2ccc3c(c2)OCO3)CC1 [TCMDC-143650], which “ACT In NR % inhibition” value is on record?
**A.** The value was “INACTIVE”.

**Q.** With O=C(NCc1ccco1)N1CCN(Cc2ccc3c(c2)CCO3)CC1 [TCMDC-143652] as the molecule, how does the “ACT In NR % inhibition” value read?
**A.** Its value is “INACTIVE”.

**Q.** With COc1ccc2nccc(NC(=O)C3CCN(CCc4ccc(Cl)cc4)CC3)c2n1 [TCMDC-143649] as the molecule, how does the “ACT In NR % inhibition” value read?
**A.** Its value is “ACTIVE 7 expts out of 10 with inh > 50%”.

**Q.** With O=C(NCc1ccco1)N1CCN(Cc2ccc(Cl)s2)CC1 [TCMDC-143653] as the molecule, how does the “ACT In NR % inhibition” value read?
**A.** The value was “INACTIVE”.

tested on: not listed separately; assay: physchem; conditions: pH 7.4, kinetic from dmso stock

**Q.** For CCCC/C=C/c1cc2ccncc2cc1OC1CCNCC1 [TCMDC-143651], which solubility is on record?
**A.** The solubility was 36 µg/mL (≈ 116 µM).

**Q.** With NCC(c1cccs1)S(=O)(=O)c1ccccc1 (centres unmarked) [TCMDC-143655] as the molecule, how does the solubility read?
**A.** The solubility was 134 µg/mL (≈ 501 µM).

**Q.** For CNc1nc(SC)nnc1-c1cccc(Cl)c1Cl [TCMDC-143661], which solubility is on record?
**A.** The solubility was 85 µg/mL (≈ 282 µM).

**Q.** With Nc1ccccc1Nc1ccc(Cl)cc1 [TCMDC-143654] as the molecule, how does the solubility read?
**A.** Its solubility is 59 µg/mL (≈ 270 µM).

**Q.** For NS(=O)(=O)c1ccc(Nc2cnc3ccccc3n2)cc1 [TCMDC-143656], which solubility is on record?
**A.** Its solubility is 112 µg/mL (≈ 373 µM).

**Q.** For O=C(NCc1ccco1)N1CCN(Cc2ccc3c(c2)OCO3)CC1 [TCMDC-143650], which solubility is on record?
**A.** The solubility was 86 µg/mL (≈ 250 µM).

**Q.** With O=C(NCc1ccco1)N1CCN(Cc2ccc3c(c2)CCO3)CC1 [TCMDC-143652] as the molecule, how does the solubility read?
**A.** The solubility was 88 µg/mL (≈ 258 µM).

**Q.** For COc1ccc2nccc(NC(=O)C3CCN(CCc4ccc(Cl)cc4)CC3)c2n1 [TCMDC-143649], which solubility is on record?
**A.** The solubility was 4 µg/mL (≈ 9.41 µM).

**Q.** Which solubility does the source give for O=C(NCc1ccco1)N1CCN(Cc2ccc(Cl)s2)CC1 [TCMDC-143653] here?
**A.** Its solubility is 98 µg/mL (≈ 288 µM).

tested on: M. tuberculosis H37Rv; assay: M. tuberculosis inhibition assay (MABA, resazurin) MIC; assay type: cell-based; conditions: Mycobacterium tuberculosis

**Q.** For CCCC/C=C/c1cc2ccncc2cc1OC1CCNCC1 [TCMDC-143651], which MIC is on record?
**A.** The MIC was 1.6 µM (≈ 0.497 µg/mL).

**Q.** With NCC(c1cccs1)S(=O)(=O)c1ccccc1 (centres unmarked) [TCMDC-143655] as the molecule, how does the MIC read?
**A.** Its MIC is 2 µM (≈ 0.535 µg/mL).

**Q.** Which MIC does the source give for CNc1nc(SC)nnc1-c1cccc(Cl)c1Cl [TCMDC-143661] here?
**A.** The MIC was 2.5 µM (≈ 0.753 µg/mL).

**Q.** Which MIC does the source give for Nc1ccccc1Nc1ccc(Cl)cc1 [TCMDC-143654] here?
**A.** Its MIC is 2 µM (≈ 0.437 µg/mL).

**Q.** Which MIC does the source give for NS(=O)(=O)c1ccc(Nc2cnc3ccccc3n2)cc1 [TCMDC-143656] here?
**A.** Its MIC is 2 µM (≈ 0.601 µg/mL).

**Q.** For O=C(NCc1ccco1)N1CCN(Cc2ccc3c(c2)OCO3)CC1 [TCMDC-143650], which MIC is on record?
**A.** The MIC was 1.25 µM (≈ 0.429 µg/mL).

**Q.** Which MIC does the source give for O=C(NCc1ccco1)N1CCN(Cc2ccc3c(c2)CCO3)CC1 [TCMDC-143652] here?
**A.** The MIC was 2 µM (≈ 0.683 µg/mL).

**Q.** Which MIC does the source give for COc1ccc2nccc(NC(=O)C3CCN(CCc4ccc(Cl)cc4)CC3)c2n1 [TCMDC-143649] here?
**A.** Its MIC is 0.2 µM (≈ 0.085 µg/mL).

**Q.** For O=C(NCc1ccco1)N1CCN(Cc2ccc(Cl)s2)CC1 [TCMDC-143653], which MIC is on record?
**A.** Its MIC is 2 µM (≈ 0.68 µg/mL).

tested on: M. bovis BCG Pasteur; assay: microbe, parasite or virus in culture; assay type: cell-based, Mycobacterium bovis BCG; conditions: Mycobacterium tuberculosis variant bovis BCG, BCG, read-out: BCG pIC50 (converted)

**Q.** Which IC50 does the source give for CCCC/C=C/c1cc2ccncc2cc1OC1CCNCC1 [TCMDC-143651] here?
**A.** Its IC50 is 2.51 µM.

**Q.** For NCC(c1cccs1)S(=O)(=O)c1ccccc1 (centres unmarked) [TCMDC-143655], which IC50 is on record?
**A.** The IC50 was 5.01 µM.

**Q.** Which IC50 does the source give for CNc1nc(SC)nnc1-c1cccc(Cl)c1Cl [TCMDC-143661] here?
**A.** The IC50 was 12.6 µM.

**Q.** Which IC50 does the source give for Nc1ccccc1Nc1ccc(Cl)cc1 [TCMDC-143654] here?
**A.** The IC50 was 0.1 µM.

**Q.** For NS(=O)(=O)c1ccc(Nc2cnc3ccccc3n2)cc1 [TCMDC-143656], which IC50 is on record?
**A.** The IC50 was 6.31 µM.

**Q.** For O=C(NCc1ccco1)N1CCN(Cc2ccc3c(c2)OCO3)CC1 [TCMDC-143650], which IC50 is on record?
**A.** Its IC50 is 1.26 µM.

**Q.** For O=C(NCc1ccco1)N1CCN(Cc2ccc3c(c2)CCO3)CC1 [TCMDC-143652], which IC50 is on record?
**A.** The IC50 was 2.51 µM.

**Q.** With COc1ccc2nccc(NC(=O)C3CCN(CCc4ccc(Cl)cc4)CC3)c2n1 [TCMDC-143649] as the molecule, how does the IC50 read?
**A.** Its IC50 is 5.01 µM.

**Q.** Which IC50 does the source give for O=C(NCc1ccco1)N1CCN(Cc2ccc(Cl)s2)CC1 [TCMDC-143653] here?
**A.** The IC50 was 1.26 µM.

same assay, conditions: hit in Mtb screen, not in BCG screen

**Q.** For CNc1nc(SC)nnc1-c1cccc(Cl)c1Cl [TCMDC-143661], which “Mtb specific (inactive against M. bovis BCG)” value is on record?
**A.** The value was “Mtb specific”.

Source: article PMC4671658, “Release of 50 new, drug-like compounds and their computational target predictions for open source anti-tubercular drug discovery” (PLoS ONE, 2015)
